Source: ChEMBL document CHEMBL4251641, “Biotin conjugated organic molecules and proteins for cancer therapy: A review” (Eur J Med Chem, 2018)
Where a SMILES comes first, the peptide text is derived from it. Bridges are numbered along the chain shown (N, C = ends).

Key:
[1] = Inhibition of high-voltage activated calcium channel (unknown origin) expressed in NG108-15 cells at -90 mV holding potential by whole cell patch clamp assay; type: cell-based; settings: Homo sapiens
L1210 = experiment: Cytotoxicity against mouse L1210 cells assessed as cell growth inhibition after 72 hrs by MTT assay; type: functional, cell-based; settings: L1210, 72 h
[2] = Selectivity ratio of IC50 for human WI38 cells to IC50 for mouse L1210FR cells; type: toxicity; settings: WI38 cells and L1210FR cells, read-out: Ratio IC50
[3] = Selectivity ratio of IC50 for mouse L1210 cells to IC50 for mouse L1210FR cells; type: functional
[4] = Cytotoxicity against mouse L1210FR cells assessed as cell growth inhibition after 72 hrs by MTT assay; type: functional, cell-based
WI-38 = experiment: Cytotoxicity against human WI38 cells assessed as cell growth inhibition after 72 hrs by MTT assay; type: cell-based; settings: WI-38, 72 h
[5] = Half life in human plasma; type: ADME, cell-free

**Q.** With `CC(C)C[C@H](NC(=O)[C@H](CCCCN)NC(=O)[C@H](Cc1c[nH]c2ccccc12)NC(=O)[C@H](CCCCN)NC(=O)[C@@H]1CSSC[C@@H]2NC(=O)[C@H](CCC(=O)O)NC(=O)[C@H](CC(N)=O)NC(=O)[C@H](CCCCN)NC(=O)CNC(=O)[C@@H]3CCCN3C(=O)[C@H]([C@@H](C)O)NC(=O)[C@@H]3CSSC[C@H](NC(=O)[C@H](C(C)C)NC(=O)[C@H](CCCNC(=N)N)NC(=O)[C@H](CC(N)=O)NC(=O)[C@@H]4CCCN4C(=O)[C@H](CSSC[C@H](NC(=O)[C@H](C)N)C(=O)N[C@@H](CCCCN)C(=O)NCC(=O)N[C@@H](C(C)C)C(=O)N[C@@H](Cc4ccccc4)C(=O)N[C@@H](CC(=O)O)C(=O)N[C@@H](C)C(=O)N3)NC2=O)C(=O)N[C@@H](CO)C(=O)N[C@@H](CC(=O)O)C(=O)N[C@@H](CCCCN)C(=O)N[C@@H](Cc2cnc[nH]2)C(=O)N[C@@H](CCCCN)C(=O)N[C@@H](Cc2c[nH]c3ccccc23)C(=O)N1)C(=O)O` (H-ACKGVFDACTPGKNECCPNRVCSDKHKWCKWKL-OH; disulfide 2-17, 9-22, 16-29) as the molecule, how does the EC50 [1] read?
**A.** 100 nM

**Q.** For `CC(=O)O[C@@]12CO[C@@H]1C[C@H](O)[C@@]1(C)C(=O)[C@H](OC(=O)C3CC3)C3=C(C)[C@@H](OC(=O)[C@H](OC(=O)Cc4ccccc4SSCCC(=O)NNC(=O)CCCC[C@@H]4SC[C@@H]5NC(=O)N[C@@H]54)[C@H](C=C(C)C)NC(=O)OC(C)(C)C)C[C@@](O)([C@@H](OC(=O)c4ccccc4)[C@H]21)C3(C)C`, which IC50 (L1210) is on record?
**A.** 522 nM

**Q.** And the selectivity ratio [2]?
**A.** 65

**Q.** What about the “Ratio IC50” value [3] of the same molecule?
**A.** 59

**Q.** What about the IC50 [4] of the same molecule?
**A.** 8.8 nM

**Q.** And the IC50 (WI-38)?
**A.** 570 nM

**Q.** With `Nc1ccn([C@@H]2O[C@H](CO)[C@@H](O)C2(F)F)c(=O)n1` [GEMCITABINE] as the molecule, how does the half-life [5] read?
**A.** 9 to 13 min
